Reference: ChEMBL document CHEMBL1134037, “Novel inhibitors of Leishmanial dihydrofolate reductase” (Bioorg Med Chem Lett, 2001)

Experiments:
[1] = molecular target: Bifunctional dihydrofolate reductase-thymidylate synthase (Leishmania major) (UniProt P07382); assay: Percent inhibition of compound against recombinant Leishmanial major dihydrofolate reductase at a concentration of 100 uM
Trypanosoma cruzi = assay: In vitro inhibition of compound against Trypanosoma cruzi was determined; format: functional, organism-based
[2] = molecular target: T1, Dihydrofolate reductase (Homo sapiens) (UniProt P00374); assay: Percent inhibition of compound against recombinant human dihydrofolate reductase at a concentration of 50 uM
T1 sequence (whole entry): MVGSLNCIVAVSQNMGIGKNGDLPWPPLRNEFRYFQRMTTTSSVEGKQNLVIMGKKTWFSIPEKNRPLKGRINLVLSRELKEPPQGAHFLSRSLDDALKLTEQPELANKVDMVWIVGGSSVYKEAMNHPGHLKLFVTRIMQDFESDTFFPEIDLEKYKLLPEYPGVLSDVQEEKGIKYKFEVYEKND

Leishmania donovani = assay: In vitro inhibition of compound against Leishmania donovani was determined; format: functional, organism-based
Trypanosoma brucei = assay: In vitro inhibition of compound against Trypanosoma brucei was determined; format: functional, organism-based
[3] = (§1) Cytotoxicity of compound was determined against rat L-6 cells; format: functional, cell-based; settings: L6
[4] = molecular target: T1, Dihydrofolate reductase (Homo sapiens); assay: Percent inhibition of compound against recombinant human dihydrofolate reductase at a concentration of 100 uM
[5] = molecular target: T1, Dihydrofolate reductase (Homo sapiens); assay: Percent inhibition of compound against recombinant human dihydrofolate reductase at a concentration of 15 uM
[6] = as §1; format: functional

Bifunctional dihydrofolate reductase-thymidylate synthase (Leishmania major), sequence (P07382 whole entry, looked up): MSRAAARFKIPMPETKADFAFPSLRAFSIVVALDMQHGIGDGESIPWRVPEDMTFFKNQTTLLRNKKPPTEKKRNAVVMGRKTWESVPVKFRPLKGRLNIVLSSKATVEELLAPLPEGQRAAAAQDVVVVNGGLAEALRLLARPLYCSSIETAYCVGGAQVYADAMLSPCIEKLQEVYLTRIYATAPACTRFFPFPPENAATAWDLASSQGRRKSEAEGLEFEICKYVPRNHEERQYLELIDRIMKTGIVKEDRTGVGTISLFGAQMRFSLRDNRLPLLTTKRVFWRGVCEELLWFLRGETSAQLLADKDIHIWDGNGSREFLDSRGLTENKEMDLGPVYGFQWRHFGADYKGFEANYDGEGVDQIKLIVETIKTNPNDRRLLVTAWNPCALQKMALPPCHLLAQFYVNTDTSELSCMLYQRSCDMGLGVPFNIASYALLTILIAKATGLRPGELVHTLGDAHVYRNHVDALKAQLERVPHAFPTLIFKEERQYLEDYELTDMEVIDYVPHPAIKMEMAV

## O=c1[nH]c(=O)n([C@H]2C[C@H](O)[C@@H](CO)O2)c2nc(-c3ccccc3)c(-c3ccccc3)nc12
[1]
  inhibition: 50%
Trypanosoma cruzi
  IC50: 35 µM
[2]
  inhibition: 37%
Leishmania donovani
  IC50: 69 µM
Trypanosoma brucei
  IC50: 11 µM
[3]
  IC50: 208 µM

## CCOC(=O)/C(C#N)=C/c1ccc(/C=C/c2ccccn2)cc1
[1]
  inhibition: 50%
Trypanosoma cruzi
  IC50: 8.6 µM
Leishmania donovani
  IC50: 47 µM
Trypanosoma brucei
  IC50: 15 µM
[4]
  inhibition: 43%
[3]
  IC50: > 296 µM

## CCn1ncc2c1n/c(=N\c1ccccc1)n1ccc3ccccc3c21
[1]
  inhibition: 28%
Trypanosoma cruzi
  IC50: 60 µM
Leishmania donovani
  IC50: 54 µM
Trypanosoma brucei
  IC50: 35 µM
[4]
  inhibition: 10%
[3]
  IC50: > 265 µM

## COC(=O)N[C@H](C(=O)OC)[C@H](O)[C@@H](C)c1c(C)nc2n(C)c3ncn(Cc4ccccc4)c3c(=O)n12
[1]
  inhibition: 24%
Trypanosoma cruzi
  IC50: 53 µM
Leishmania donovani
  IC50: < 21 µM
Trypanosoma brucei
  IC50: 108 µM
[4]
  inhibition: 16%
[3]
  IC50: 181 µM

## COC(=O)/C(C#N)=C/c1ccc(/C=C/c2ccccn2)cc1
[1]
  inhibition: 32%
Trypanosoma cruzi
  IC50: 30 µM
[5]
  inhibition: 21%
Leishmania donovani
  IC50: 56 µM
Trypanosoma brucei
  IC50: 16 µM
[6]
  MIC: > 310 µM
